Drawing on US20170081323A1 (priority 2015, published 2017), this text covers IC50 for 29 compounds.

pIC50: −log10 of the molar value.

The first assay relates to influenza A virus (IAV) A/Aichi/2/68 (H3N2). The assay can be described thus: microbe, parasite or virus in culture. Conditions: H3N2, MDCK, 48 h, read-out: CPE. The class given is cell-based, influenza A virus A/Aichi/2/68 (H3N2) on MDCK cells.
In the case of `O=c1[nH]nc2c(-c3ccccc3)cccn12`, the pIC50 is under 4.30.
As for `O=c1[nH]nc2cc(-c3ccccc3)ccn12`, the pIC50 is under 4.30.
Same read-out and setting: the figure for `O=c1[nH]nc2ccc(-c3ccccc3)cn12` is under 4.30; for `O=c1[nH]nc2ccc(-c3cccc(Cl)c3)cn12` it is under 4.30; for `O=c1[nH]nc2ccc(-c3cccc(F)c3F)cn12` it is under 4.30.
Regarding `O=c1[nH]nc2ccc(-c3ccc(Cl)cc3)cn12`, the pIC50 is under 4.30.
Same read-out and setting: under `O=c1[nH]nc2ccc(-c3ccccc3-c3ccccc3)cn12` stands under 4.30; under `O=c1[nH]nc2ccc(-c3ccccc3-c3ccncc3)cn12`, under 4.30; under `O=c1[nH]nc2ccc(Oc3ccccc3)cn12`, under 4.30.
As to `O=c1[nH]nc2cccc(-c3ncccn3)n12`, the pIC50 was under 4.30.
Same read-out and setting: under `O=c1[nH]nc2ccc(Br)c(Oc3ccccc3)n12` stands under 4.30; under `O=c1[nH]nc2ccc(-c3ccccc3Cl)c(OCC3CC3)n12`, under 4.30; under `O=c1[nH]nc2cccc(-c3ccccc3)n12`, under 4.30.
The same measure, in the same setting: the figure for `O=c1[nH]nc2n1C(OCC1CC1)CCC2` (centres unmarked) is under 4.30; for `O=c1[nH]nc2ccc(-c3cccc4ccccc34)cn12` it is under 4.30.
The same measure, in the same setting: under `O=c1[nH]nc2ccc(Br)cn12` stands under 4.30; under `O=c1[nH]nc2ccc(-c3ccccc3Cl)cn12`, under 4.30.
Regarding `COc1ccc(-c2ccc3n[nH]c(=O)n3c2)c(Cl)c1`, the pIC50 is under 4.30.
On the same count and under the same terms, under `Cc1ccc(C)c(-c2ccc3n[nH]c(=O)n3c2)c1` stands under 4.30; under `O=c1[nH]nc2ccc(-c3cccc(F)c3)cn12`, under 4.30.
On the same count and under the same terms, the figure for `O=c1[nH]nc2ccc(-c3ccccc3-c3cccc(F)c3)cn12` is under 4.30.
Regarding `O=c1[nH]nc2ccc(-c3cccc(-c4ccccc4)c3)cn12`, the pIC50 is under 4.30.
As to `O=c1[nH]nc2ccc(-c3ccc(-c4ccccc4)cc3)cn12`, the pIC50 is under 4.30.
Still for that read-out and setting: the figure for `O=c1[nH]nc2cccc(Oc3ccccc3)n12` is under 4.30; for `O=c1[nH]nc2ccc(-c3ccccc3)c(OCC3CC3)n12` it is under 4.30; for `O=c1[nH]nc2ccc(-c3ccccc3Cl)c(Oc3ccccc3)n12` it is under 4.30.
In the case of `O=c1[nH]nc2cccc(C#CC3CC3)n12`, the pIC50 is under 4.30.
The same measure, in the same setting: the figure for `O=C1NNC2CCCC(CCC3CC3)N12` (centres unmarked) is under 4.30.

Still in this assay, the particulars now being: H3N2, MDCK, 48 h, read-out: CPE IC50.
Consider `O=c1[nH]nc2ccc(-c3cccc(-c4c(F)cccc4F)c3)cn12`, for which the pIC50 is 4.46.
